Experimental findings from EP4817425A1, “COMPOSITION AND SOLID MOLDED BODY” (Nagase & Co., Ltd., priority 2023, dated 2025) are described below.

This data set is described as follows: Screening test of saccharides: thickness of tableted product tableted to hardness 5 N. Type of data set: physicochemical. As to conditions: protein powder and saccharide weight ratio 1:1, tableted to hardness 5 N; compared among eight saccharides (Fig. 1). The source says: The tableting characteristics of various saccharides were confirmed, and saccharides suitable for the production of a solid molded body were screened. First, 2.0 g each (within an error of 0.003 g) of a protein powder (WPC392 manufactured by Fonterra Japan Limited) and any one of the saccharides shown below were weighed and mixed to prepare a composition containing 50 parts by weight each of the protein and the saccharide (weight ratio 1:1). Each of the obtained compositions was tableted with the tableting force appropriately adjusted so that the composition would have a hardness of 5 N after being tableted. As a result, a tableted product having a hardness of 5 N was obtained. The thickness of the obtained tableted product was measured. Note that in the Examples, the thicknesses of a tableted product and a solid molded body are values each measured using a caliper (ABS digimatic caliper CD-AX, manufactured by Mitutoyo Corporation), and the hardnesses of a tableted product and a solid molded body are values each measured using a load cell type tablet hardness tester (PC-30 manufactured by OKADA SEIKO CO., LTD.).

With `OC[C@H]1O[C@H](O[C@H]2[C@H](O)[C@@H](O)C(O)O[C@@H]2CO)[C@H](O)[C@@H](O)[C@@H]1O` (mixture of isomers) [maltose, Maltose], the “thickness of the tableted product” value is listed as “largest thickness”.
